Experimental findings from ChEMBL document CHEMBL1201862, “PubChem BioAssay data set” (2004) are described below.

Active and inactive are the calls of the source.

Test [1] has as its target 1-phosphatidylinositol 4,5-bisphosphate phosphodiesterase gamma-1 (Homo sapiens, UniProt P19174). Kind of test: Counterscreen for inhibitors of phospholipase C isozymes (PLC-B3): Fluorescence-based biochemical high throughput dose response assay to identify inhibitors of phospholipase C isozymes (PLC-gamma1).
The target of test [2] is 1-phosphatidylinositol 4,5-bisphosphate phosphodiesterase beta-3 (Homo sapiens, UniProt Q01970). Kind of test: Fluorescence-based biochemical high throughput dose response assay to identify inhibitors of phospholipase C isozymes (PLC-B3).
Test [3] addresses Major prion protein (Homo sapiens, UniProt P04156). The class given is functional, cell-based.
A short description of test [4]: cells.
In test [5] the target is T1, Carboxy-terminal domain RNA polymerase II polypeptide A small phosphatase 1 (Homo sapiens, UniProt Q9GZU7).
T1 sequence (Q9GZU7 whole entry): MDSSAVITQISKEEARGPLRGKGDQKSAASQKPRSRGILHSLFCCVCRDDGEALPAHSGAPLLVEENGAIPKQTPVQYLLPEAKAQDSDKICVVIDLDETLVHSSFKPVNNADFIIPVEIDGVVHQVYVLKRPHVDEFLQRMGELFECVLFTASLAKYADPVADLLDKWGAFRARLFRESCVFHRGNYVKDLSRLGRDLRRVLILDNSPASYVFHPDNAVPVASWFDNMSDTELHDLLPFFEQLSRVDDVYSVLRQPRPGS
Kind of test: inhibitors of CTDSP1, concentration-response testing, biochemical assay, absorbance-based, actives from ultra-high-throughput screening (AID 540297). The class given is functional.

The target in test [6] is Tyrosine-protein phosphatase non-receptor type 11 (Homo sapiens, UniProt Q06124). Kind of test: SHP2 phosphatase inhibition, dose response, selectivity assay for STEP inhibitor project, biochemical (AID 602367). The note with it: read-out: IC50_Mean. The class given is functional.
For test [7], the target named is Tyrosine-protein phosphatase non-receptor type 5 (Homo sapiens, UniProt P54829). Kind of test: STEP phosphatase inhibitors, confirmation, biochemical, fluorescence intensity, uHTS hits (AID 602372). Conditions: read-out: IC50_Mean. The class given is functional.
The target of test [8] is Dual specificity protein phosphatase 3 (Homo sapiens, UniProt P51452). Kind of test: VHR phosphatase inhibition, dose response, selectivity assay for STEP inhibitor project, biochemical (AID 602374). The class given is functional. Conditions: read-out: IC50_Mean.
Test [9] deals with Disintegrin and metalloproteinase domain-containing protein 17 (Homo sapiens, UniProt P78536). Kind of test: exosite inhibitors of ADAM17, dose response, biochemical (AID 743260).
Test [10] in a line: ADAM10 protease inhibitors, dose response, selectivity assay for ADAM17 exosite inhibitor project, biochemical, FRET peptide substrate, recombinant human ADAM10 (AID 743259).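 Also: ADAM10 enzyme cleaving a FRET peptide substrate.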
Test [11] has as its target fMet-Leu-Phe receptor (Homo sapiens, UniProt P21462). Kind of test: FPR ligands, dose response (AID 519). The class given is functional.
Test [12] deals with T2, Replicative DNA helicase DnaB (Mycobacterium tuberculosis, UniProt P9WMR3).
T2 sequence (P9WMR3 whole entry): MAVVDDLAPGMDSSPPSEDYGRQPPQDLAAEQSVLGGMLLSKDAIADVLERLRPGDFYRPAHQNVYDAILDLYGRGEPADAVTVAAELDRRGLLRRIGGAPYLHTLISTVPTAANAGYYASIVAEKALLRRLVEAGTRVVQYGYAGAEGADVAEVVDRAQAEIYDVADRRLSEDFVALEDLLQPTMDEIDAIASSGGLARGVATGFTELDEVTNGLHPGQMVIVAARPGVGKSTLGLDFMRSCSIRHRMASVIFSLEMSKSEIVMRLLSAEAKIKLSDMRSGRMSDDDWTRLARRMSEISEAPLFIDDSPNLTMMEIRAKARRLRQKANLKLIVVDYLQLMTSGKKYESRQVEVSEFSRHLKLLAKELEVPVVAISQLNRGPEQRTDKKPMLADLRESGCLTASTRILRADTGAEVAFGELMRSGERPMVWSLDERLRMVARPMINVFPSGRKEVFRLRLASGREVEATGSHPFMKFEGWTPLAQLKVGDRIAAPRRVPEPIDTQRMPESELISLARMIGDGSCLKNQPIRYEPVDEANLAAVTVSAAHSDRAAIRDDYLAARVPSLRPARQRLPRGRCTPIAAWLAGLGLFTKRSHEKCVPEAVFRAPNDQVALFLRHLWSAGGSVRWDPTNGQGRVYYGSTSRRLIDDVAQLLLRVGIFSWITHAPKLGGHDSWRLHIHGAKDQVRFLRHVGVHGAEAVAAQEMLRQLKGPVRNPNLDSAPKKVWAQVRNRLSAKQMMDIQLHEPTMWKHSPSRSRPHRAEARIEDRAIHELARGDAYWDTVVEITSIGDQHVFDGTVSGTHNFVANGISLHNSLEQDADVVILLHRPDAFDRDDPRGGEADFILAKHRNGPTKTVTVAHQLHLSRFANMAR
Kind of test: DnaB intein splicing inhibitors, dose response, biochemical, cell-free fluorescence (AID 449749). The class given is functional.

Test [13] has as its target T3, Apoptotic protease-activating factor 1 (Homo sapiens, UniProt O14727).
T3 sequence (O14727 whole entry): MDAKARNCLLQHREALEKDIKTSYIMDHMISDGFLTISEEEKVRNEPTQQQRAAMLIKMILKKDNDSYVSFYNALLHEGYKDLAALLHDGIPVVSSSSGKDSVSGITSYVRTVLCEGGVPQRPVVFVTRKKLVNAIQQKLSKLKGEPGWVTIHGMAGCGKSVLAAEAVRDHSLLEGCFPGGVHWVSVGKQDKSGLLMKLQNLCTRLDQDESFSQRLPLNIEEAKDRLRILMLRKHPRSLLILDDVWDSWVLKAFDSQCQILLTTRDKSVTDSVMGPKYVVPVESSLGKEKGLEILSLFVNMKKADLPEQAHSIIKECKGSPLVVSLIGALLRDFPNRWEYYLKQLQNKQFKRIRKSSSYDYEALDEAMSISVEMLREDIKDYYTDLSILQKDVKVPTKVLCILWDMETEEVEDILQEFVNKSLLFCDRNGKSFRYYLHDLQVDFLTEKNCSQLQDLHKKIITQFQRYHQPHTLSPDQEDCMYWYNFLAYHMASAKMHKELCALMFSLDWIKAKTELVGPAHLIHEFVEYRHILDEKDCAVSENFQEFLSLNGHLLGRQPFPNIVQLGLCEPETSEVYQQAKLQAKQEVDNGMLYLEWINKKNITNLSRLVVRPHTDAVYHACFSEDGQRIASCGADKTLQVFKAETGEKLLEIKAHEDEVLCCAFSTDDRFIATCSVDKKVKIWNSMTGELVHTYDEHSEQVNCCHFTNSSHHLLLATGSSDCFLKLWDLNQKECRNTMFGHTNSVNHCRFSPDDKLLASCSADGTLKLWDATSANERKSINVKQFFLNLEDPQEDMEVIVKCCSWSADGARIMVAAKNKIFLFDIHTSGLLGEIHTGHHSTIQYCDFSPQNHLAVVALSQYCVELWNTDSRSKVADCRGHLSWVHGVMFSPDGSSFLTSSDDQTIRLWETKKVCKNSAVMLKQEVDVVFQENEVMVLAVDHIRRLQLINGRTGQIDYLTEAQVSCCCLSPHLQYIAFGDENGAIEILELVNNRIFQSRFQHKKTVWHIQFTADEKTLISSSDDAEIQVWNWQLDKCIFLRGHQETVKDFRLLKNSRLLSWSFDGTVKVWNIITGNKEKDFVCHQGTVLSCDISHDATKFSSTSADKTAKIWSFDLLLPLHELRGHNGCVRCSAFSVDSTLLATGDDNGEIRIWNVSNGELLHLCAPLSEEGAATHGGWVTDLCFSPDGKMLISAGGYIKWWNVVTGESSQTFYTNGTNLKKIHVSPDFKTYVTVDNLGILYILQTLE
The class given is functional.

For test [14], the target named is T4, Protein RecA (Mycobacterium tuberculosis, UniProt P9WHJ3).
T4 sequence (P9WHJ3 whole entry): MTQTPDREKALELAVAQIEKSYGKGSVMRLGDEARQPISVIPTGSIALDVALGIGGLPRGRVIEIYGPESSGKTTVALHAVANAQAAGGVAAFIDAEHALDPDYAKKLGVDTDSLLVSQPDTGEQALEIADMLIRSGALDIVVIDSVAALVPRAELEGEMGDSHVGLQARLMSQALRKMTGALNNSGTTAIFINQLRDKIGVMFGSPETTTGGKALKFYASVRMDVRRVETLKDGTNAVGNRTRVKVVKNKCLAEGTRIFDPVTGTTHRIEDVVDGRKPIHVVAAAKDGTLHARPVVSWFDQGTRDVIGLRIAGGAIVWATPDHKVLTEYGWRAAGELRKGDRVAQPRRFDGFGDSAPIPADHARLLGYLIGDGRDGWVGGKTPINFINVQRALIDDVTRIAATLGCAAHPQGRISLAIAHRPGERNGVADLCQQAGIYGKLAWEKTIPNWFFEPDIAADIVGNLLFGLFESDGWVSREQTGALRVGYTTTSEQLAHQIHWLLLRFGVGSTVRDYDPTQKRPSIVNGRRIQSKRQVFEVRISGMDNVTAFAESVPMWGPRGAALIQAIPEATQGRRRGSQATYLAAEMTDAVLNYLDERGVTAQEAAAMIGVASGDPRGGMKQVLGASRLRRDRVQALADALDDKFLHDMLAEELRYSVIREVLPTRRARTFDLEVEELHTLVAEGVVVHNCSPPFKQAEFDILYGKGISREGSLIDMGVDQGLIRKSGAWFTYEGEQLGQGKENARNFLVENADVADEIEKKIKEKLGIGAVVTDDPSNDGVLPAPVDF
Kind of test: Fluorescence Cell-Free Homogeneous Dose Retest to Identify Inhibitors of RecA-Intein Splicing Activity. [Related pubchem assays (depositor defined):AID2097, AID2223, AID489010, AID492950]. The class given is functional.

The target of test [15] is Genome polyprotein (dengue virus type 2, UniProt P29990). Kind of test: Dengue-2 NS5 methyltransferase inhibitors, primary screen, biochemical, confirmation dose response (AID 588689). The class given is functional.
The target of test [16] is Histone-lysine N-methyltransferase NSD2 (Homo sapiens, UniProt O96028). The class given is biochemical.

A word on the Ki: it is a measure of affinity in units of concentration, obtained from inhibition or displacement. The term AC50 denotes the concentration giving half of the maximal activity seen. The EC50 is the concentration at which the effect is half-maximal.

fMet-Leu-Phe receptor, sequence (P21462 whole entry): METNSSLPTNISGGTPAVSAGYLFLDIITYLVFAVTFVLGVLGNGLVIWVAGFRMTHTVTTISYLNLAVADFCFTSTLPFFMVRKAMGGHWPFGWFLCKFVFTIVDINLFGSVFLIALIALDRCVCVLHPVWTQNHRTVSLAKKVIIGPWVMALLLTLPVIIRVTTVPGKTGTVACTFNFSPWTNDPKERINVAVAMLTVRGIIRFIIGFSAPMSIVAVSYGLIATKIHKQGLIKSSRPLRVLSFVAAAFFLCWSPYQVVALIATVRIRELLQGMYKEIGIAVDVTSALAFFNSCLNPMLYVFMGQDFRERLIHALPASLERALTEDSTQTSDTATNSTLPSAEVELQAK
Disintegrin and metalloproteinase domain-containing protein 17, sequence (P78536 whole entry, the tested form may be a part): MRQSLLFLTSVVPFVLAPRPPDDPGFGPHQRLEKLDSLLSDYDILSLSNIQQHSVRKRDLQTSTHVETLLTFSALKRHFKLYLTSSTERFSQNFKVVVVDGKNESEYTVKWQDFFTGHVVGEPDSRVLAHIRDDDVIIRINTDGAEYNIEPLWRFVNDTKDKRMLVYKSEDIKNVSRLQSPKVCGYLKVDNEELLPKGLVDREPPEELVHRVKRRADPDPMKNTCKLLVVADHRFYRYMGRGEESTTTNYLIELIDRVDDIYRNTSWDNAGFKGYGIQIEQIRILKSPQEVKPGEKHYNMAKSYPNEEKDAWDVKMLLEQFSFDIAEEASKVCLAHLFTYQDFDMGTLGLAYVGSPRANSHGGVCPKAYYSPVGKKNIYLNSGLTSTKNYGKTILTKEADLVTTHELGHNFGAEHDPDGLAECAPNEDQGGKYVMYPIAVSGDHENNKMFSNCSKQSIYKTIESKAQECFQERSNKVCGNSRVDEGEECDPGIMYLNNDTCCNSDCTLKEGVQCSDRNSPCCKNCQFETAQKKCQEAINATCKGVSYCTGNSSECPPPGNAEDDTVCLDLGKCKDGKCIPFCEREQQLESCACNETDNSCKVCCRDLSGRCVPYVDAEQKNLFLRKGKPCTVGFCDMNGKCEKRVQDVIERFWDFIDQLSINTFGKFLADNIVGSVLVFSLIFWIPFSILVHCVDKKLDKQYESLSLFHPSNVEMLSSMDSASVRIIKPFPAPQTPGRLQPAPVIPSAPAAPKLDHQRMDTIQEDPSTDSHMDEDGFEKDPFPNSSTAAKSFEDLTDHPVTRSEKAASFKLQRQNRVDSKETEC
1-phosphatidylinositol 4,5-bisphosphate phosphodiesterase gamma-1, sequence (P19174 whole entry): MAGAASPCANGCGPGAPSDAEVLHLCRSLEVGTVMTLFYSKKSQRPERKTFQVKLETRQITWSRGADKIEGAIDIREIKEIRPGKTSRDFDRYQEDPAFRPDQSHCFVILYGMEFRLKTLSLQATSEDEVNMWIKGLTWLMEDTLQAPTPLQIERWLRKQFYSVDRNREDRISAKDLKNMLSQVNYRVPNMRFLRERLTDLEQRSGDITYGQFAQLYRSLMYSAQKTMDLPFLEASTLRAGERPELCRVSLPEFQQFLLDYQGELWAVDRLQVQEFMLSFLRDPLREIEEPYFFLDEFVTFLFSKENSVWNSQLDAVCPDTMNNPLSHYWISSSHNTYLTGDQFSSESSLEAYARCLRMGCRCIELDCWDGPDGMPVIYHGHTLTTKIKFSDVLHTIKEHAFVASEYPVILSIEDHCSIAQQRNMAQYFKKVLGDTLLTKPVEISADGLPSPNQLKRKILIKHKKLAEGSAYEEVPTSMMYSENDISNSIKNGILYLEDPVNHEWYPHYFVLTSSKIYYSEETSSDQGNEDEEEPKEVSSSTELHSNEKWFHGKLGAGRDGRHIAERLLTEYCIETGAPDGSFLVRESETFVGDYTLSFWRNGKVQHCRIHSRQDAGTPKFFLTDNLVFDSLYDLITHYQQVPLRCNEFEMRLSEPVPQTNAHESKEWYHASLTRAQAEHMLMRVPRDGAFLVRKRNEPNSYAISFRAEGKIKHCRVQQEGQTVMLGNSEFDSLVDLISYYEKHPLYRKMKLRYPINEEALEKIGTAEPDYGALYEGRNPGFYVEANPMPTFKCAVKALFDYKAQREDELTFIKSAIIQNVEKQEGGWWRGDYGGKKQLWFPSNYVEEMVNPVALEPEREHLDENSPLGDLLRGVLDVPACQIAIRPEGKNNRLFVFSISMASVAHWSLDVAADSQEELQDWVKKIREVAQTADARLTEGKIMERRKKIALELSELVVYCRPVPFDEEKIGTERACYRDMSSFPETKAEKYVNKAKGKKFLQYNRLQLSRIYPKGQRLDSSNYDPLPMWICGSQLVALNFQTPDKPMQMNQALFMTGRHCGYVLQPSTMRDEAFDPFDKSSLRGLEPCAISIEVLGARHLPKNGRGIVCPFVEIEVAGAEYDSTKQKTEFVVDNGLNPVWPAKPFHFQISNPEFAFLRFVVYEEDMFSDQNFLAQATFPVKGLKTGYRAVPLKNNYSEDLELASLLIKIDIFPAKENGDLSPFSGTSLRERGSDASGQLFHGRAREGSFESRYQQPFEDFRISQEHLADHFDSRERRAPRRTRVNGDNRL
1-phosphatidylinositol 4,5-bisphosphate phosphodiesterase beta-3, sequence (Q01970 whole entry): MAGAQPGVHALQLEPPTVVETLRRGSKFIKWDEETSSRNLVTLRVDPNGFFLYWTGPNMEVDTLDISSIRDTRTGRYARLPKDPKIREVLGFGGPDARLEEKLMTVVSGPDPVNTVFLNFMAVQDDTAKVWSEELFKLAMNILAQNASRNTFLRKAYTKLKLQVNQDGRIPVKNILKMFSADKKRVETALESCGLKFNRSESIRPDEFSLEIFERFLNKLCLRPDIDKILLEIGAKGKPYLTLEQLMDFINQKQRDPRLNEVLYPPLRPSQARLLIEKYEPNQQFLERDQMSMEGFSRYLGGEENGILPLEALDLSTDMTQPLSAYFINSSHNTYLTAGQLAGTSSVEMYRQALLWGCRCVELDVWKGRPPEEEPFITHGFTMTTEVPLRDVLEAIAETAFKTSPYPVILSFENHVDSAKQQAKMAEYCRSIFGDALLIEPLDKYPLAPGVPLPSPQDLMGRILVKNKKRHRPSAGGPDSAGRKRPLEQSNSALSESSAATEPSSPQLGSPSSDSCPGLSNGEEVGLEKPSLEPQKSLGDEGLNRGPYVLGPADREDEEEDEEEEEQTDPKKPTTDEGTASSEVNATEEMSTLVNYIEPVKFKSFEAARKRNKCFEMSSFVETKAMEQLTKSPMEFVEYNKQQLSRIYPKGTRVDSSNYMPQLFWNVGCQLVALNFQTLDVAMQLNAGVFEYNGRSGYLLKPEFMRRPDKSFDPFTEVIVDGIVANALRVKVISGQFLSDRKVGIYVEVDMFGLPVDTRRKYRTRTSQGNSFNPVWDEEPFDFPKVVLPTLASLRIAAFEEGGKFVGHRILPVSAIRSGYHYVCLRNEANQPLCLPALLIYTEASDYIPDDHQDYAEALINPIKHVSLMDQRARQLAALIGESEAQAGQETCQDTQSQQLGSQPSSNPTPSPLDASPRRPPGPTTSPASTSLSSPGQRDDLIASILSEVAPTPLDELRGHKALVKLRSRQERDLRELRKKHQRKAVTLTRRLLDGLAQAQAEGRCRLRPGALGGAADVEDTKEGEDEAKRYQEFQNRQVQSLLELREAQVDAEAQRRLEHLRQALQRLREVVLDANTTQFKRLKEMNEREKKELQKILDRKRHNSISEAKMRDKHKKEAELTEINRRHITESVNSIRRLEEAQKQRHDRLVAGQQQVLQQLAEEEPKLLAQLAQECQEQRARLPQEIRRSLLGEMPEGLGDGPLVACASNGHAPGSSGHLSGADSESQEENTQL
Histone-lysine N-methyltransferase NSD2, sequence (O96028 whole entry): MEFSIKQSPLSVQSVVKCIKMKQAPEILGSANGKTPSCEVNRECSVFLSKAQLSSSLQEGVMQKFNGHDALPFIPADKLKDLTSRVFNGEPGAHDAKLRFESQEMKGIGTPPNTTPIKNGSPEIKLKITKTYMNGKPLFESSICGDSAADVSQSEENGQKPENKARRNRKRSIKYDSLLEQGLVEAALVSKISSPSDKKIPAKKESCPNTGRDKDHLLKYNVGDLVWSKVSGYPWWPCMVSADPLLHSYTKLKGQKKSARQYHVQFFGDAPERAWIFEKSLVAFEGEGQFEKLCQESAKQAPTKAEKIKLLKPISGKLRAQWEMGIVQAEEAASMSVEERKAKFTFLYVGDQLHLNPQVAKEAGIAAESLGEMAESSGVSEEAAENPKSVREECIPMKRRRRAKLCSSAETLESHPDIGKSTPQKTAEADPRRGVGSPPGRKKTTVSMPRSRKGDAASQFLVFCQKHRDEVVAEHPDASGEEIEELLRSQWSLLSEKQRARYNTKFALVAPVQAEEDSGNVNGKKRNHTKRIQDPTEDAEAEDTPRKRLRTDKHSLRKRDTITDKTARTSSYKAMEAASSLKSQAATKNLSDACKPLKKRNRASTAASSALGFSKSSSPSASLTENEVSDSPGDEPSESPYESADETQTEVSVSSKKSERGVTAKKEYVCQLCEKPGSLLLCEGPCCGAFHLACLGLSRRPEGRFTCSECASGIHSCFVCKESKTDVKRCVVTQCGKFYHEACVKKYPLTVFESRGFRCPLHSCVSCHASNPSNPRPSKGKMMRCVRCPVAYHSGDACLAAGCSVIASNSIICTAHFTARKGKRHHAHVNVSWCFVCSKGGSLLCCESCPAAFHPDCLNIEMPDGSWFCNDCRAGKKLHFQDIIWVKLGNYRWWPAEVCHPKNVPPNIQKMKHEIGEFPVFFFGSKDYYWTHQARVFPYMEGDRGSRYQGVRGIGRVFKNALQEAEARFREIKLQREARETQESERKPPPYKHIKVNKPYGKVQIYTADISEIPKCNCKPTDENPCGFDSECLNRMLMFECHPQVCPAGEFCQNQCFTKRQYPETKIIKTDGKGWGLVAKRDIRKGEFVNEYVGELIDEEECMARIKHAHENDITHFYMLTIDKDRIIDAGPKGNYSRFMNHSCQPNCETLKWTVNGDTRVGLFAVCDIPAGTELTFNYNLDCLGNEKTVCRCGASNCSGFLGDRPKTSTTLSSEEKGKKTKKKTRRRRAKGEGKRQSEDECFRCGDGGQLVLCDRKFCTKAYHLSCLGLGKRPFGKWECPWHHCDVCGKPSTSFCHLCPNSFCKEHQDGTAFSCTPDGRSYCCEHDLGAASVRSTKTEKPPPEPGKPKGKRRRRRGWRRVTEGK

For `CC(C)(C)c1cc(C(=O)NNC(=O)Nc2ccccc2)n(Cc2ccccc2)n1`, the IC50 in test [1] and in test [2] was > 122 µM (inactive) in each case.

For the molecule `Cc1cc(NC(=O)C(C)Sc2nc(-c3cccs3)nc3ccccc23)no1` (stereo not drawn), the IC50 in [3] is 1.7 µM (active); in test [4], > 138 µM (inactive).

Turning to `CCN(c1ccccc1)S(=O)(=O)c1cc(C(=O)OC(C)C(=O)Nc2ccc3c(c2)OCCO3)ccc1C` (stereo not drawn), the IC50 in test [5] is 4.38 µM (active); in test [6], 2.47 µM (active); in test [7], > 80 µM (inactive); in [8] it was 5.05 µM (active); in test [9], > 69.5 µM (inactive); in [10], > 7.72 µM (active).

With `Cc1ccc(C(=O)C2=C(O)C(=O)N(CCN3CCOCC3)C2c2cccnc2)cc1` (stereo not drawn), the Ki in test [11] was > 66.7 µM (inactive).

For `Cc1ccc(-n2c(C3CC3c3ccc(Cl)cc3)n[nH]c2=S)cc1` (stereo not drawn), the IC50 in test [9] is > 69.5 µM (inactive).

With `Cc1ccc(-n2c(S)nnc2C2CC2c2ccc(Cl)cc2)cc1` (stereo not drawn), in test [10], the IC50 is > 69.5 µM (inactive).

On to `Cc1ccc(NC(=O)c2oc3ccc(S(=O)(=O)N4CCOCC4)cc3c2C)cc1C`, for which the Ki in test [11] was > 66.7 µM (inactive).

Regarding `Cc1ccc(Cc2c(-c3ccco3)nc3c(C)cc(Br)cn23)cc1`, the IC50 was 9.95 µM (active) in test [3] and 78.6 µM (inactive) in test [4].

As to `CC(C)(C)c1ccc(S(=O)(=O)/N=C2\C=C(NS(=O)(=O)c3ccccc3)C(=O)c3ccccc32)cc1`, the AC50 in test [12] is 4.68 µM (active); in test [16] it was 3.73 µM (active). The IC50 was 15 µM (active) in [13] and 25.5 µM (active) in [15]. Also, in test [14], the EC50 is 4.85 µM (active).

`COC(=O)C(C(=O)OC)[C@H]1C=C[C@@H](C(=O)NS(=O)(=O)c2ccc(C)cc2)N(C(C)=O)C1`: the IC50 in [1] was 2.03 µM (active); in test [2] it was > 122 µM (inactive).
